Organism: Rattus norvegicus
Experiment: DrugMatrix - Regimen: Daily Repeat
Type: toxicity, organism-based, Sprague-Dawley
Parameters: regimen Daily Repeat, gender Male, age 6-8 weeks
Conditions: in vivo, ip, 0 mg/kg, route intraperitoneal, dose level Control, vehicle 100 % SALINE; for ABSOLUTE BASOPHIL / ABSOLUTE EOSINOPHIL / ABSOLUTE LYMPHOCYTE / ABSOLUTE MONOCYTE / ABSOLUTE SEGMENTED NEUTROPHIL / BASOPHIL / EOSINOPHIL / ERYTHROCYTE COUNT / HEMATOCRIT / HEMOGLOBIN / LEUKOCYTE COUNT / LYMPHOCYTE / MEAN CORPUSCULAR HEMOGLOBIN / MEAN CORPUSCULAR HEMOGLOBIN CONCENTRATION / MEAN CORPUSCULAR VOLUME / MONOCYTE / NEUTROPHIL / PLATELET COUNT: tissue Blood
[1] = 120 h, tissue Plasma, time 5 day
[2] = […], tissue Plasma, time 14 day
[3] = […], tissue Plasma, time 28 day

## CARBOPLATIN
120 h, time 5 day
  ABSOLUTE BASOPHIL: 32 cells/µL
  ABSOLUTE EOSINOPHIL: 110 cells/µL
  ABSOLUTE LYMPHOCYTE: 6630 cells/µL
  ABSOLUTE MONOCYTE: 140 cells/µL
  ABSOLUTE SEGMENTED NEUTROPHIL: 1170 cells/µL
  BASOPHIL: 0.38%
  EOSINOPHIL: 1.28%
  ERYTHROCYTE COUNT: 7.45 x10E6/uL
  HEMATOCRIT: 45.74%
  HEMOGLOBIN: 14.72 G/DL
  LEUKOCYTE COUNT: 8.11 x10E3/uL
  LYMPHOCYTE: 81.3%
  MEAN CORPUSCULAR HEMOGLOBIN: 19.76 pg
  MEAN CORPUSCULAR HEMOGLOBIN CONCENTRATION: 32.16 G/DL
  MEAN CORPUSCULAR VOLUME: 61.38 fL
  MONOCYTE: 1.76%
  NEUTROPHIL: 14.9%
  PLATELET COUNT: 1322.4 x10E3/uL
[1]
  ALANINE AMINOTRANSFERASE: 25.8 u/L
  ALBUMIN: 3.64 G/DL
  ASPARTATE AMINOTRANSFERASE: 81.4 u/L
  BLOOD UREA NITROGEN: 14.4 mg/dL
  CHOLESTEROL: 69.2 mg/dL
  CREATINE PHOSPHOKINASE: 303.2 u/L
  CREATININE: 0.56 mg/dL
  GLUCOSE: 125.4 mg/dL
  LACTATE DEHYDROGENASE: 105.4 u/L
  LIPASE: 22.4 u/L
  POTASSIUM: 5.52 MEQ/L
  SODIUM: 147 MEQ/L
  TOTAL BILIRUBIN: 0.2 mg/dL
  TOTAL PROTEIN: 6.1 G/DL
  URIC ACID: 1.06 mg/dL
[…], time 14 day
  ABSOLUTE BASOPHIL: 130 cells/µL
  ABSOLUTE EOSINOPHIL: 140 cells/µL
  ABSOLUTE LYMPHOCYTE: 13500 cells/µL
  ABSOLUTE MONOCYTE: 400 cells/µL
  ABSOLUTE SEGMENTED NEUTROPHIL: 2330 cells/µL
  BASOPHIL: 0.72%
  EOSINOPHIL: 0.86%
  ERYTHROCYTE COUNT: 7.74 x10E6/uL
  HEMATOCRIT: 45.98%
  LEUKOCYTE COUNT: 16.61 x10E3/uL
  LYMPHOCYTE: 81.34%
  MEAN CORPUSCULAR HEMOGLOBIN: 18 pg
  MEAN CORPUSCULAR HEMOGLOBIN CONCENTRATION: 30.22 G/DL
  MEAN CORPUSCULAR VOLUME: 59.4 fL
  MONOCYTE: 2.46%
  NEUTROPHIL: 14.14%
  PLATELET COUNT: 1445.5 x10E3/uL
[…], time 28 day
  ABSOLUTE BASOPHIL: 91 cells/µL
  ABSOLUTE EOSINOPHIL: 110 cells/µL
  ABSOLUTE LYMPHOCYTE: 9910 cells/µL
  ABSOLUTE MONOCYTE: 210 cells/µL
  ABSOLUTE SEGMENTED NEUTROPHIL: 1560 cells/µL
  BASOPHIL: 0.77%
  EOSINOPHIL: 0.92%
  ERYTHROCYTE COUNT: 8.21 x10E6/uL
  HEMATOCRIT: 47.53%
  HEMOGLOBIN: 15.65 G/DL
  LEUKOCYTE COUNT: 11.91 x10E3/uL
  LYMPHOCYTE: 83.34%
  MEAN CORPUSCULAR HEMOGLOBIN: 19.07 pg
  MEAN CORPUSCULAR HEMOGLOBIN CONCENTRATION: 32.93 G/DL
  MEAN CORPUSCULAR VOLUME: 57.9 fL
  MONOCYTE: 1.68%
  NEUTROPHIL: 12.97%
  PLATELET COUNT: 1323.8 x10E3/uL
[2]
  ALANINE AMINOTRANSFERASE: 31.6 u/L
  ALBUMIN: 3.66 G/DL
  ALKALINE PHOSPHATASE: 228.6 u/L
  ASPARTATE AMINOTRANSFERASE: 79.6 u/L
  BLOOD UREA NITROGEN: 11.2 mg/dL
  CHLORIDE: 107 MEQ/L
  CHOLESTEROL: 57 mg/dL
  CREATININE: 0.5 mg/dL
  GLUCOSE: 124.4 mg/dL
  LACTATE DEHYDROGENASE: 106.4 u/L
  LIPASE: 24.4 u/L
  PHOSPHORUS: 10.52 mg/dL
  POTASSIUM: 6.34 MEQ/L
  SODIUM: 149.2 MEQ/L
  TOTAL BILIRUBIN: 0.2 mg/dL
  TOTAL PROTEIN: 6.48 G/DL
  URIC ACID: 0.94 mg/dL
[3]
  ALANINE AMINOTRANSFERASE: 30 u/L
  ALBUMIN: 3.71 G/DL
  ALKALINE PHOSPHATASE: 186.8 u/L
  ASPARTATE AMINOTRANSFERASE: 78.2 u/L
  BLOOD UREA NITROGEN: 14.2 mg/dL
  CHOLESTEROL: 44.9 mg/dL
  CREATINE PHOSPHOKINASE: 334.3 u/L
  CREATININE: 0.6 mg/dL
  GLUCOSE: 147.2 mg/dL
  LACTATE DEHYDROGENASE: 123.1 u/L
  LIPASE: 9.6 u/L
  PHOSPHORUS: 10.01 mg/dL
  POTASSIUM: 6.57 MEQ/L
  SODIUM: 149.5 MEQ/L
  TOTAL BILIRUBIN: 0.21 mg/dL
  TOTAL PROTEIN: 6.66 G/DL

Source: ChEMBL document CHEMBL3885881, “DrugMatrix”
